Laboratory results: the supplement of paper PMC4862054

Experiments:
Conditions in all cases: incubation time: 72 h
HDQ-P1 [1] = experiment: normalised response (% of control), CellTiter-Glo; higher = more viable cells (100 = DMSO, 0 = benzethonium chloride kill control)
Outline: (§1)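 Plates were normalised with 0.1 % DMSO as 100 and a positive kill control as 0. Breast cancer cell lines in 20 µl suspension had been seeded into 384-well plates with compound at 5 concentrations in 10-fold steps over a compound-specific 10,000-fold range, incubated 72 h, and read for CellTox Green fluorescence (485/520 nm) followed by CellTiter-Glo luminescence. Each value is the normalised signal at a single concentration.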

MDA-MB-231 [2] = experiment: as above
Outline: as §1

DU-4475 [3] = experiment: as above
Outline: as §1

Hs578T [4] = experiment: as above
Outline: as §1

BT-549 [5] = experiment: as above
Outline: as §1

CAL-85-1 [6] = experiment: as above
Outline: as §1

HCC1599 [7] = experiment: as above
Outline: as §1

MDA-MB-436 [8] = experiment: as above
Outline: as §1

CAL-148 [9] = experiment: as above
Outline: as §1

MCF-10A [10] = experiment: as above
Outline: as §1

BT-474 [11] = experiment: as above
Outline: as §1

MDA-MB-453 [12] = experiment: as above
Outline: as §1

CAL-120 [13] = experiment: as above
Outline: as §1

HCC1143 [14] = experiment: as above
Outline: as §1

CAL-51 [15] = experiment: as above
Outline: as §1

HCC1937 [16] = experiment: as above
Outline: as §1

MFM-223 [17] = experiment: as above
Outline: as §1

MDA-MB-468 [18] = experiment: as above
Outline: as §1

SK-BR-3 = experiment: as above
Outline: as §1

HDQ-P1 [19] = experiment: normalised response (% of control), CellTox Green; higher = less cell death (100 = DMSO, 0 = benzethonium chloride kill control)
Outline: as §1

MDA-MB-231 [20] = experiment: as above
Outline: as §1

DU-4475 [21] = experiment: as above
Outline: as §1

BT-549 [22] = experiment: as above
Outline: as §1

CAL-85-1 [23] = experiment: as above
Outline: as §1

HCC1599 [24] = experiment: as above
Outline: as §1

MDA-MB-436 [25] = experiment: as above
Outline: as §1

CAL-148 [26] = experiment: as above
Outline: as §1

MCF-10A [27] = experiment: as above
Outline: as §1

BT-474 [28] = experiment: as above
Outline: as §1

MDA-MB-453 [29] = experiment: as above
Outline: as §1

CAL-120 [30] = experiment: as above
Outline: as §1

HCC1143 [31] = experiment: as above
Outline: as §1

CAL-51 [32] = experiment: as above
Outline: as §1

HCC1937 [33] = experiment: as above
Outline: as §1

MFM-223 [34] = experiment: as above
Outline: as §1

MDA-MB-468 [35] = experiment: as above
Outline: as §1

Hs578T [36] = experiment: as above
Outline: as §1

SMILES	normalised response (HDQ-P1 [1]) [%]	normalised response (MDA-MB-231 [2]) [%]	normalised response (DU-4475 [3]) [%]	normalised response (Hs578T [4]) [%]	normalised response (BT-549 [5]) [%]	normalised response (CAL-85-1 [6]) [%]	normalised response (HCC1599 [7]) [%]	normalised response (MDA-MB-436 [8]) [%]	normalised response (CAL-148 [9]) [%]	normalised response (MCF-10A [10]) [%]	normalised response (BT-474 [11]) [%]	normalised response (MDA-MB-453 [12]) [%]	normalised response (CAL-120 [13]) [%]	normalised response (HCC1143 [14]) [%]	normalised response (CAL-51 [15]) [%]	normalised response (HCC1937 [16]) [%]	normalised response (MFM-223 [17]) [%]	normalised response (MDA-MB-468 [18]) [%]	normalised response (SK-BR-3) [%]	normalised response (HDQ-P1 [19]) [%]	normalised response (MDA-MB-231 [20]) [%]	normalised response (DU-4475 [21]) [%]	normalised response (BT-549 [22]) [%]	normalised response (CAL-85-1 [23]) [%]	normalised response (HCC1599 [24]) [%]	normalised response (MDA-MB-436 [25]) [%]	normalised response (CAL-148 [26]) [%]	normalised response (MCF-10A [27]) [%]	normalised response (BT-474 [28]) [%]	normalised response (MDA-MB-453 [29]) [%]	normalised response (CAL-120 [30]) [%]	normalised response (HCC1143 [31]) [%]	normalised response (CAL-51 [32]) [%]	normalised response (HCC1937 [33]) [%]	normalised response (MFM-223 [34]) [%]	normalised response (MDA-MB-468 [35]) [%]	normalised response (Hs578T [36]) [%]
Cc1ccc(-c2cc(C(F)(F)F)nn2-c2ccc(S(N)(=O)=O)cc2)cc1 [Celecoxib] (1000 nM)	100	96.4	94	107	107	93.3	99.6	101	91.3	112	100	99	98.1	99.9	118	109	100	99.8	101	112	106	101	115	104	99.1	105	104	81.4	101	105	101	104	117	111	96	121	–
Nc1ncn([C@H]2C[C@H](O)[C@@H](CO)O2)c(=O)n1 [Decitabine] (1000 nM)	93.2	98.4	90.1	93	77.8	105	103	97.3	83.5	93.5	90.3	112	91.7	90.4	83.6	87.9	96.5	26.2	85.5	–	121	97.4	116	89.9	101	100	103	78.9	98.6	84.1	93.6	80.5	77.8	110	93.6	115	112
CC[C@H](Nc1ncnc2[nH]cnc12)c1nc2cccc(F)c2c(=O)n1-c1ccccc1 [GS-1101] (1000 nM)	87.7	85.5	92.3	100	82.8	93.2	110	85.3	97.7	78.9	84.6	89.6	89.9	84.9	97.3	94.9	90.3	86.9	79.6	106	84.2	96.9	105	94.1	93.7	–	80.2	112	98.7	107	96.9	97.4	88.6	–	101	88.1	93.8
COc1cc2c(NC3CCN(C(C)C)CC3)nc(C3CCCCC3)nc2cc1OCCCN1CCCC1 [UNC0638] (1000 nM)	95.6	92	92.1	103	91.6	106	82.1	91.3	88.9	76.7	92.4	90.6	92.8	93.3	71.4	89.9	83.6	78.8	84.6	–	81.7	91.6	81.2	94.4	89.1	92.5	93	104	91.6	95.8	100	–	78.5	92.1	95.7	143	92.6
CCCS(=O)(=O)Nc1ccc(F)c(C(=O)c2c[nH]c3ncc(-c4ccc(Cl)cc4)cc23)c1F [Vemurafenib] (10 nM)	94.9	91.3	93.2	95.8	91.2	90.9	99.6	88.7	87.8	89.2	95.5	87.6	95.2	97.6	109	98.8	89.8	88.2	71.8	–	–	–	–	–	–	–	–	–	–	–	–	–	–	–	–	–	–
